SMILES strings stand for the structures.

For the first series, the target named is ATP-binding cassette sub-family C member 3 (Mus musculus, UniProt B2RX12). Kind of series: (§1) TP_TRANSPORTER: quantitative PCR in vivo, liver of mouse. Type of series: functional, organism-based.
Sequence of ATP-binding cassette sub-family C member 3 (B2RX12 whole entry): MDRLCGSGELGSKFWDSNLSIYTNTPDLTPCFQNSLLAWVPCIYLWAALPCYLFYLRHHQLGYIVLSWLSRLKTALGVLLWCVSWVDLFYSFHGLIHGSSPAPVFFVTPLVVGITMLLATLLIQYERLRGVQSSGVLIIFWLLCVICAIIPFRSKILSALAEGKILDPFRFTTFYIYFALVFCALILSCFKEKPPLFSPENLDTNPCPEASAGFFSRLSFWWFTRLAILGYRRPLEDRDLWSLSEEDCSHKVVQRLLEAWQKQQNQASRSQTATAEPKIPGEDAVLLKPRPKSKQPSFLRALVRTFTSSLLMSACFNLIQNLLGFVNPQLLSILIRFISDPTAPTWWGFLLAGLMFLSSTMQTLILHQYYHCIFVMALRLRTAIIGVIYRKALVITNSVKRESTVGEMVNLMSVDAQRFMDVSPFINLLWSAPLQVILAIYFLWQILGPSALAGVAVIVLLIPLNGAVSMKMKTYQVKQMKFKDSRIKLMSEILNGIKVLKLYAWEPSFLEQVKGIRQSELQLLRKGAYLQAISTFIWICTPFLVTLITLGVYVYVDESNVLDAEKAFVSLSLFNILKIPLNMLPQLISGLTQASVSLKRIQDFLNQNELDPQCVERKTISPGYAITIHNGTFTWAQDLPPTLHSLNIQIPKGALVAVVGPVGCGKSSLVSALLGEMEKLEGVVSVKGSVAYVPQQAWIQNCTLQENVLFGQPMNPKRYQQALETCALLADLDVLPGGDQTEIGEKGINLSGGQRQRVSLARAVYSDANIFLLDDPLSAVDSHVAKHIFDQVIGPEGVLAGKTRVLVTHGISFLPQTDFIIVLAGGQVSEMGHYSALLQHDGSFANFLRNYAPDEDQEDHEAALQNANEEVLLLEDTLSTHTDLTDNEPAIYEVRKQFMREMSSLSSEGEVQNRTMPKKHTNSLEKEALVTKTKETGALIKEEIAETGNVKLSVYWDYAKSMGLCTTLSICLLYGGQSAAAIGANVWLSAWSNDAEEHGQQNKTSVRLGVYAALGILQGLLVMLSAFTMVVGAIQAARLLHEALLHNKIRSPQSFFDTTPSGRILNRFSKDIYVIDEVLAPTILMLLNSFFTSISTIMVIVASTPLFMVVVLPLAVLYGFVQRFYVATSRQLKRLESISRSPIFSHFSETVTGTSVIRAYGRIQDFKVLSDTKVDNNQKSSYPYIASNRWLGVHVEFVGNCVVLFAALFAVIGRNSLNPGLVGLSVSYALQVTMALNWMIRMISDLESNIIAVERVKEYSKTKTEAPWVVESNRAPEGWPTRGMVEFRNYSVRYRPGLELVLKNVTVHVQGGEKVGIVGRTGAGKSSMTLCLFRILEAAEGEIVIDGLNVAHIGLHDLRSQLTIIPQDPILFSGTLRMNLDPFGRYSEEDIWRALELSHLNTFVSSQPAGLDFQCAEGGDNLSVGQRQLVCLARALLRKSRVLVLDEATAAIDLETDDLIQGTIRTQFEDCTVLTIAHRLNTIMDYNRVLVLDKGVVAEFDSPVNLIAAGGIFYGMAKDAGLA
With `C#C[C@]1(O)CC[C@H]2[C@@H]3CCC4=CC(=O)CCC4=C3[C@@H](c3ccc(N(C)C)cc3)C[C@]21C`, the Activity entry is “inducer []”.

With `Clc1ccccc1C(c1ccccc1)(c1ccccc1)n1ccnc1` [CLOTRIMAZOLE], the Activity result is “inducer []”.

On to `CO[C@H]1/C=C/O[C@@]2(C)Oc3c(C)c(O)c4c(O)c(c(/C=N/N5CCN(C)CC5)c(O)c4c3C2=O)NC(=O)/C(C)=C\C=C\[C@H](C)[C@H](O)[C@@H](C)[C@@H](O)[C@@H](C)[C@H](OC(C)=O)[C@@H]1C` [RIFAMPIN], for which the Activity result is “inducer []”.

On to `CC(=O)[C@H]1[C@H](C#N)C[C@H]2[C@@H]3CC=C4C[C@@H](O)CC[C@]4(C)[C@H]3CC[C@@]21C` [PREGNENOLONE CARBONITRILE], for which the Activity result is “inducer []”.

On to `CC(C)(C(=O)c1cccnc1)c1cccnc1` [METYRAPONE], for which the Activity result is “inducer []”.

Turning to `C[C@H](CCC(=O)O)[C@H]1CC[C@H]2[C@@H]3CC[C@@H]4C[C@H](O)CC[C@]4(C)[C@H]3CC[C@]12C` [LITHOCHOLIC ACID], the Activity entry is “inducer []”.

On to `COC(=O)C1=C(C)NC(C)=C(C(=O)OC)C1c1ccccc1[N+](=O)[O-]` [NIFEDIPINE], for which the Activity result is “inducer []”.

The target of a further series is ATP-binding cassette sub-family C member 2 (Mus musculus, UniProt Q8VI47). The description is as §1. It is filed as functional, organism-based.
Sequence of ATP-binding cassette sub-family C member 2 (Q8VI47 whole entry): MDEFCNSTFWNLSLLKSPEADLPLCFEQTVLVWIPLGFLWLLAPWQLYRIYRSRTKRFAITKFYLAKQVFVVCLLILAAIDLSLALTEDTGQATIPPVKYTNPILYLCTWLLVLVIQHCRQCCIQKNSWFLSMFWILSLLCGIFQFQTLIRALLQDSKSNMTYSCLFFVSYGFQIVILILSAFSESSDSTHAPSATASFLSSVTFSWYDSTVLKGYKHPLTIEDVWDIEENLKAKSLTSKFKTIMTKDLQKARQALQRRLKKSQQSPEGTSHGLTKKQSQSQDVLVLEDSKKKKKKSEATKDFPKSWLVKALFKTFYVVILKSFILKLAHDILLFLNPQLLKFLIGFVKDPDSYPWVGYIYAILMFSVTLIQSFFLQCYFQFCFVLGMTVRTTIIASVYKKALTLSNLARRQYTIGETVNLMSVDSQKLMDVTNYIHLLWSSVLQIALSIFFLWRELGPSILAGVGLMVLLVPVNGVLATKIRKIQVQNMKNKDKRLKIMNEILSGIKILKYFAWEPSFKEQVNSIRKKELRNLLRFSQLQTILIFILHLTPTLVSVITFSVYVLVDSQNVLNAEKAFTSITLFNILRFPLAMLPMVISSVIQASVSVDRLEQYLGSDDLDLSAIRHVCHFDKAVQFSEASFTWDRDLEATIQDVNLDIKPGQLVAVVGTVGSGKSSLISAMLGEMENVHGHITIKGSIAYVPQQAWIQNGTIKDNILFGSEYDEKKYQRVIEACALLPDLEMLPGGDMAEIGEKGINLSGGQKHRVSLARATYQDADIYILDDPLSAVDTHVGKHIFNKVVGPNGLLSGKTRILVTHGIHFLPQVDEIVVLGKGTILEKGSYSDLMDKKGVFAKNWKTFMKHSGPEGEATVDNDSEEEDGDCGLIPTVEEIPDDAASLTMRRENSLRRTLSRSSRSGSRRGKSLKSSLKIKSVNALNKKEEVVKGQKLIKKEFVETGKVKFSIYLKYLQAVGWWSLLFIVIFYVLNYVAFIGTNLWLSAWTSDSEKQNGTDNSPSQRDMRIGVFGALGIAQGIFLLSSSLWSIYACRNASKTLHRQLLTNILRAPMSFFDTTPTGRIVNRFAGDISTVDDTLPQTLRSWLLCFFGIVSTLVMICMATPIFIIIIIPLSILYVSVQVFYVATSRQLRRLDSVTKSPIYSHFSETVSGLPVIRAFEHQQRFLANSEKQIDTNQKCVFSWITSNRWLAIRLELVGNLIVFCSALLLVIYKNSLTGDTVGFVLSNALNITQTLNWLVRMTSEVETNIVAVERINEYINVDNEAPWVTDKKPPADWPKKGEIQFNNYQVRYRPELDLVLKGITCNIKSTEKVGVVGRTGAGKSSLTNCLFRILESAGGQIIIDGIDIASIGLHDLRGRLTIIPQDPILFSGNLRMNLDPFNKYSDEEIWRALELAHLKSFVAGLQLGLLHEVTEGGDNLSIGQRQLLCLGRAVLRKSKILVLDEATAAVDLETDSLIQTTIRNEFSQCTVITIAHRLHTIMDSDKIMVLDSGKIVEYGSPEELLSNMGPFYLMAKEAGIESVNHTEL
In the case of `C#C[C@]1(O)CC[C@H]2[C@@H]3CCC4=CC(=O)CCC4=C3[C@@H](c3ccc(N(C)C)cc3)C[C@]21C`, the Activity result was “inducer []”.

These data come from ChEMBL document CHEMBL2074006, “Induction of ABCC3 (MRP3) by pregnane X receptor activators” (Drug Metab Dispos, 2003).
